# Experimental data as given in patent US20140323418A1, “SELECTIVE KINASE INHIBITORS” (PORTOLA PHARMACEUTICALS, INC., priority 2011, published 2014).
# Target: T1, full length active recombinant SYK enzyme (Homo sapiens, UniProt P43405)
# T1 construct: full length active recombinant SYK enzyme (Millipore, Calif.); purchased Millipore
# Test: Inhibition of Syk tyrosine phosphorylation activity (LANCE TR-FRET kinase assay)
# Format: biochemical
# Settings: 1 nM SYK, 550 nM substrate, 100 μM ATP, 1 hour room temperature
row,IC50,Structure (SMILES)
1,100 to 1000 nM,"NC(=O)c1cnc(N[C@@H]2CCCC(F)(F)[C@@H]2N)nc1Nc1ccc2scnc2c1 [Example 30, 2-(((1R,2R)-2-amino-3,3-difluorocyclohexyl)amino)-4-(benzo[d]thiazol-5-ylamino)pyrimidine-5-carboxamide]"
2,10 to 100 nM,"NC(=O)c1cnc(N[C@@H]2CCOC[C@@H]2N)nc1Nc1ccc(Cl)cc1 [Example 51, 2-(((3R,4R)-3-aminotetrahydro-2H-pyran-4-yl)amino)-4-((4-chlorophenyl)amino)pyrimidine-5-carboxamide]"
3,10 to 100 nM,"Cc1nsc(Nc2nc(N[C@@H]3CCCC[C@@H]3N)ncc2C(N)=O)c1Cl [Example 232, 2-(((1R,2S)-2-aminocyclohexyl)amino)-4-((4-chloro-3-methylisothiazol-5-yl)amino)pyrimidine-5-carboxamide]"
4,1 to 10 nM,"C[C@@H](Nc1ncc(C(N)=O)c(Nc2cccc(-n3cccn3)c2)n1)C1(N)CC1 [Example 143, (R)-4-(3-(1H-pyrazol-1-yl)phenylamino)-2-(1-(1-aminocyclopropyl)ethylamino)pyrimidine-5-carboxamide]"
5,10 to 100 nM,"NC(=O)c1cnc(N[C@@H]2CCCC[C@@H]2N)nc1Nc1cc(Br)cc(-n2nccn2)c1 [Example 21, 2-((1R,2S)-2-aminocyclohexylamino)-4-(3-bromo-5-(2H-1,2,3-triazol-2-yl)phenylamino)pyrimidine-5-carboxamide]"
6,100 to 1000 nM,"Cc1cccc(Nc2nc(N[C@@H](c3ccccc3)C3(N)CC3)ncc2C(N)=O)c1 [Example 148, (5)-2-(1-(1-aminocyclopropyl)(phenyl)methylamino)-4-(m-tolylamino)pyrimidine-5-carboxamide]"
7,100 to 1000 nM,"CN(C)c1ncc(C(N)=O)c(Nc2cccc(-n3nccn3)c2)n1 [Example 3, 4-(3-(2H-1,2,3-triazol-2-yl)phenylamino)-2-(dimethylamino)pyrimidine-5-carboxamide]"
8,100 to 1000 nM,"CCO[C@H]1CCCC[C@H]1Nc1ncc(C(N)=O)c(Nc2cccc(-n3nccn3)c2)n1 [Example 7, 4-(3-(2H-1,2,3-triazol-2-yl)phenylamino)-2-((1R,2S)-2-ethoxycyclohexylamino)pyrimidine-5-carboxamide]"
9,< 1 nM,"CC[C@@H](Nc1ncc(C(N)=O)c(Nc2cccc(C)c2)n1)C1(N)CC1 [Example 126, (R)-2-(1-(1-aminocyclopropyl)propylamino)-4-(m-tolylamino)pyrimidine-5-carboxamide]"
10,10 to 100 nM,"Cn1ccc2c(Nc3nc(NCC(N)C(C)(F)F)ncc3C(N)=O)cccc21 (stereo not drawn) [Example 104, 2-(2-amino-3,3-difluorobutylamino)-4-(1-methyl-1H-indol-4-ylamino)pyrimidine-5-carboxamide]"
11,10 to 100 nM,"Cc1cccc(Nc2nc(N[C@@H](CN)CC(F)F)ncc2C(N)=O)c1 [Example 89, (R)-4-(m-toluidino)-2-(1-amino-4,4-difluorobutan-2-ylamino)pyrimidine-5-carboxamide]"
12,100 to 1000 nM,"Cn1ccc2c(Nc3nc(NC4CCCCC4)ncc3C(N)=O)cccc21 [Example 108, 2-(cyclohexylamino)-4-(1-methyl-1H-indol-4-ylamino)pyrimidine-5-carboxamide]"
13,10 to 100 nM,"NC(=O)c1cnc(N[C@@H]2CCCC(F)(F)[C@@H]2N)nc1Nc1ccc2ncsc2c1 [Example 29, 2-(((1R,2R)-2-amino-3,3-difluorocyclohexyl)amino)-4-(benzo[d]thiazol-6-ylamino)pyrimidine-5-carboxamide]"
14,10 to 100 nM,"N#Cc1cccc(Nc2nc(N[C@@H]3CCOC[C@@H]3N)ncc2C(N)=O)c1 [Example 53, 2-(((3R,4R)-3-aminotetrahydro-2H-pyran-4-yl)amino)-4-((3-cyanophenyl)amino)pyrimidine-5-carboxamide]"
15,100 to 1000 nM,"CCn1ccc2c(Nc3nc(NC4CC4)ncc3C(N)=O)cccc21 [Example 114, 2-(cyclopropylamino)-4-(1-ethyl-1H-indol-4-ylamino)pyrimidine-5-carboxamide]"
16,100 to 1000 nM,"Cc1cccc(Nc2nc(N[C@@H]3C[C@@H](C(N)=O)CC[C@@H]3N)ncc2C(N)=O)c1 (racemic) [Example 243, 2-((1R,2S,5S)-2-amino-5-carbamoylcyclohexylamino)-4-(m-tolylamino)pyrimidine-5-carboxamide]"
17,100 to 1000 nM,"Cn1cc(C#N)c2c(Nc3nc(N[C@@H]4CCCC[C@@H]4N)ncc3C(N)=O)cccc21 [Example 103, 2-((1R,2S)-2-aminocyclohexylamino)-4-(3-cyano-1-methyl-1H-indol-4-ylamino)pyrimidine-5-carboxamide]"
18,10 to 100 nM,"CCCc1cc2c(Nc3nc(N[C@@H]4CCCC[C@@H]4N)ncc3C(N)=O)cccc2n1C [Example 102, 2-((1R,2S)-2-aminocyclohexylamino)-4-(1-methyl-2-propyl-1H-indol-4-ylamino)pyrimidine-5-carboxamide]"
19,100 to 1000 nM,"CC(C)[C@@H](Nc1ncc(C(N)=O)c(Nc2ccc3cccnc3c2)n1)C(N)=O [Example 77, (R)-2-(1-amino-3-methyl-1-oxobutan-2-ylamino)-4-(quinolin-7-ylamino)pyrimidine-5-carboxamide]"
20,10 to 100 nM,"NC(=O)c1cnc(N[C@@H]2CCOC[C@@H]2N)nc1Nc1csc2ncccc12 [Example 179, 2-((3R,4R)-3-aminotetrahydro-2H-pyran-4-ylamino)-4-(thieno[2,3-b]pyridin-3-ylamino)pyrimidine-5-carboxamide]"
21,10 to 100 nM,"NC(=O)c1cnc(N[C@H](C2CC2)C2(N)CC2)nc1Nc1ccc2scnc2c1 [Example 166, (R)-2-(1-(1-aminocyclopropyl)(cyclopropyl)methylamino)-4-(benzo[d]thiazol-5-ylamino)pyrimidine-5-carboxamide]"
22,100 to 1000 nM,"Cn1ccc2c(Nc3nc(NCC4CC4)ncc3C(N)=O)cccc21 [Example 112, 2-(cyclopropylmethylamino)-4-(1-methyl-1H-indol-4-ylamino)pyrimidine-5-carboxamide]"
23,1 to 10 nM,"Cc1cccc(Nc2nc(N[C@H](C)C3(N)CC3)ncc2C(N)=O)c1 [Example 145, (R)-2-(1-(1-aminocyclopropyl)ethylamino)-4-(m-tolylamino)pyrimidine-5-carboxamide]"
24,100 to 1000 nM,"CCC[C@@H](Nc1ncc(C(N)=O)c(Nc2cccc(OC)c2)n1)C(N)=O [Example 61, (R)-2-((1-amino-1-oxopentan-2-yl)amino)-4-((3-methoxyphenyl)amino)pyrimidine-5-carboxamide]"
25,100 to 1000 nM,"NC(=O)c1cnc(N[C@@H]2CCCC(F)(F)[C@@H]2N)nc1Nc1cccc(-c2ncccn2)c1 [Example 26, 2-(((1R,2R)-2-amino-3,3-difluorocyclohexyl)amino)-4-((3-(pyrimidin-2-yl)phenyl)amino)pyrimidine-5-carboxamide]"
26,10 to 100 nM,NC(=O)c1cnc(N[C@@H]2CCC[C@H](F)[C@@H]2N)nc1Nc1cccc(-n2nccn2)c1 (racemic) [Example 174]
27,10 to 100 nM,"NC(=O)c1cnc(N[C@@H]2CCCC[C@@H]2N)nc1Nc1ccc2ccncc2c1 [Example 73, 2-((1R,2S)-2-aminocyclohexylamino)-4-(isoquinolin-7-ylamino)pyrimidine-5-carboxamide]"
